Reference: US11773057B2, “Naphthalenesulfonamide compound, preparation method, and application” (CHINA PHARMACEUTICAL UNIVERSITY, priority 2019, dated 2023)

Key:
[1] = biological target: T1, Keap1-Nrf2 PPI (Keap1 kelch domain protein, FITC labeled Nrf2 9 peptide) (Homo sapiens, UniProt Q14145); assay: Fluorescence polarization based Keap1-Nrf2 PPI competitive inhibition experiment (FP experiment); format: binding; settings: for IC50: FP experiment, general formula V / VI compounds
T1 construct: 10 μL 12 nm Keap1 kelch domain protein
Experimental: 1. Keap1-Nrf2 PPI Competitive Inhibition Test Based on Fluorescence Polarization (FP Experiment)
The 384-well blackboard model 3676 produced by Corning is used in FP experiment, with a total volume of reaction of 40 μL. 20 μL compound, 10 μL 4 nm FITC labeled Nrf2 9 peptide, 10 μL 12 nm Keap1 kelch domain protein are added to the well in order. 20 μL 200 nM DDO-1002, 10 μL 4 nM of the FITC-labeled Nrf2 9 peptide, 10 μL 12 nM of Keap1 Ketch domain protein are used in the positive control; 20 μL HEPES buffer, 10 μL 4 nM of the FITC-labeled Nrf2 9 peptide, 10 μL, 12 nM of Keap1 Kelch domain protein are used in the negative control; 10 μL 4 nM of the FITC-labeled Nrf2 9 peptide, 30 μL of HEPES buffer are used in the blank control. After addition is complete, they are incubated for 30 min at room temperature. The detection instrument is a SpectraMax Multi-Mode Microplate Reader (Molecular Devices), the excitation light wavelength selected is 485 nm, the emission light wavelength is 545 nm, and the fluorescence intensity in the horizontal and vertical directions is detected to calculate the polarization value. The inhibition rate is calculated as: inhibition %=[…]/(Pmax−Pmin) wherein Pobs is the polarization value of the compound well, Pmax is the polarization value of the negative control well, and Pmin is the polarization value of the blank well. Data treatment is performed using GraphPad Prism, and IC50 of the compound is calculated using a concentration-inhibition rate curve. The IC50 values for each compound are as previously described.

[2] = system: HepG2-ARE-C8 cells; assay: ARE luciferase reporter gene experiment; format: cell-based; settings: compound acts 12 h, ratio to DMSO group, FIG. 1, in words
Experimental: 2. ARE Luciferase Reporter Gene Experiment
HepG2-ARE-C8 cells in log growth phase (these cells are given by A. N. Tony Kong of Rutgers University) are digested with 0.1% pancreatin to prepare a cell suspension, the cell suspension is added to a 96-well microtiter plate at a cell concentration of 4×10^5/mL, added 100 μL per well, and after overnight culture, a DMSO group serves as a negative control, t-BHQ serves as a positive control, and a cell culture lysis reagent serves as a background value. The compound is allowed to act for 12 h, three replicate wells were provided, the growth medium is carefully pipetted from the cells to be examined, 100 μL of pre-cooled. […] 100 μL luciferase detection reagent is added to each well and read immediately. […] Typical delay time is 2 seconds, typical reading time is 10 seconds, and the last measured data is divided from the DMSO group. […]
By a fluorescence polarization based Keap1-Nrf2 PPI competitive inhibition experiment we have shown that on the target level, some compounds (compound numbers see FIG. 1) are able to efficiently compete for binding to Keap1 and thereby activating Nrf2. […] When luciferin is present in a substrate, the […], and the activation capability of a compound on Nrf2 is indirectly reflected by means of fluorescence intensity. […]

T1 sequence (Q14145 321-609 limits assumed): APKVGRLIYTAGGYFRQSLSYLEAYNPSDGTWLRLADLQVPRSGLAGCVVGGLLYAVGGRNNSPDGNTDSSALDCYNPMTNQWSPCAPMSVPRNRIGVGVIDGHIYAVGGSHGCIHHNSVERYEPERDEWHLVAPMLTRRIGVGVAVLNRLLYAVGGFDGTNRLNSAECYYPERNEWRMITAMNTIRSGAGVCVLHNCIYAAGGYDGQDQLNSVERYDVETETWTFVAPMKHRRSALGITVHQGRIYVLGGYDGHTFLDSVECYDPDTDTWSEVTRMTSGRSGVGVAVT

Structure (SMILES)	IC50 [1] [nM]	target activity in the FP assay ([1]; in words)	ARE luciferase reporter gene activity (fold induction), cell activity [2]
C#CCN(c1ccc(N(CC(=O)O)S(=O)(=O)c2c(C)cc(OC)cc2C)c2ccccc12)[C@@H](C)CC(=O)O [DDO-1221]	5.8	optimal target activity	does not have the optimal cell activity
C#CCN(c1ccc(NS(=O)(=O)c2c(C)cc(OC)cc2C)c2ccccc12)[C@@H](C)CC(=O)O [DDO-1220]	13	–	has the optimal cell activity
